Test results as given in publication PMC10763564, “BrainBike peptidomimetic enables efficient transport of proteins across brain endothelium” (RSC Chemical Biology, 2023).
Starred links: 1 amine or outer side, 2 acyl side, 3 side chain; linkers in the order of their positions; H or OH if unused. Positions of bridges follow the written chain, without caps; N, C: chain ends. Residues, ends and D or L forms follow the SMILES beside them. TBMB = c1c(C[*:1])cc(C[*:3])cc1C[*:2]

Tests used:
[1] = biological target: HeLa cells (TfR1+) (Homo sapiens, UniProt P02786); experiment: Cell binding assay of sCy5-labelled peptides to HeLa cells by flow cytometry; format: cell-based; conditions: 5 to 600 nM, 4 °C, 1 hour, geometric mean vs concentration
Chain of HeLa cells (TfR1+) (P02786 whole entry): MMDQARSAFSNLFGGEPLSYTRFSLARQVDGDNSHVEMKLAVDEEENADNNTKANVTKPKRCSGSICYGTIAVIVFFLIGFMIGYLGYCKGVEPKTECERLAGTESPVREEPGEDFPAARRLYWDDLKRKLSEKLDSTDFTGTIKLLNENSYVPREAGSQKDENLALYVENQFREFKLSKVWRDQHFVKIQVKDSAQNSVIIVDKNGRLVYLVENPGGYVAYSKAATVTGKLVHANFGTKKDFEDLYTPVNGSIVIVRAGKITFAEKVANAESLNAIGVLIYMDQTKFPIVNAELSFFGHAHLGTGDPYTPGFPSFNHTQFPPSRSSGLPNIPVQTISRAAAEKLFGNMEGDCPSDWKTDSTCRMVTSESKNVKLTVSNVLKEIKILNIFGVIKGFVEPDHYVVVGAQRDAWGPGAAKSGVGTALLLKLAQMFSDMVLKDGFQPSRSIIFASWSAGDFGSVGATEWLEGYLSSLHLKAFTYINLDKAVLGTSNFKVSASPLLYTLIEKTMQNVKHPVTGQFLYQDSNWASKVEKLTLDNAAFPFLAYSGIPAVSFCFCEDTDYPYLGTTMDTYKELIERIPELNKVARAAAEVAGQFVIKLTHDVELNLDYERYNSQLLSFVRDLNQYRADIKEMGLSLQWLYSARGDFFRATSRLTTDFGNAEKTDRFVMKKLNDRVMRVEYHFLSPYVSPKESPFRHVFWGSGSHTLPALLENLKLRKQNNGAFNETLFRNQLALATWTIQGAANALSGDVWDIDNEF
Experimental: HeLa cells were cultured in DMEM media (1000 mg/L glucose) supplemented with 10% fetal bovine serum (FBS), 1% of 2 mM L -glutamine and 1% antibiotics (100 units/mL of penicillin and 100 µg/mL of streptomycin). Cells were expanded at 80% confluence and grown at 37°C with 5% CO2. All work performed with human cells follow the ethical principles and EU […]
Cell transfection of HeLa cells to express higher levels of TfR1
In a 96-well plate, 10,000 HeLa cells per well were seeded and left to grow for 24 h. A mixture of Lipofectamine 3000 (0.1 µL/well, Lipofectamine™ 3000 Transfection Reagent, ThermoFisher Scientific ), P3000 Reagent (0.2 µL/well) and the DNA pTfR-mNeonGreen (Plasmid #129608, Addgene) (100 ng/well ) in Opti-MEM medium was prepared. The mixture was incubated for 15 mi n, added to the cells, and incubated for 48 h.
48-hour post-transfection, 50 μl of the sulfo-Cy5-labelled peptides were added to each well at the appropriate concentration (from 5 to 600 nM) and incubated at 4°C for 1 hour. Cells were washed three times with 100 μL of PBS, trypsinized with 25 μl of trypsin for 5 min at 37°C and, then 75 μL of supplemented medium with formalin (33% v/v) was added. Cells were detached by repeated pipetting and analysed using an Agilent NovoCyteflow cytometer (Agilent). sCy5 was analysed at 640 nm while mNeon-Green at 488 nm. Data was analysed by plotting the geometric mean vs the concentration of the peptide. […]

[2] = Peptide stability in human serum; format: in vitro ADME; conditions: peptide 100 µM, 37 °C, aliquots 0 min to 48 h, MeOH protein precipitation, % intact peptide by UHPLC-UV, confirmed with mass spectrometry
Experimental: Peptide stability in human serum
Peptides were dissolved in human serum at a final concentration of 100 µM and then incubated at 37 °C. Aliquots of 50 µL were taken at different times (0 min, 15 min, 30 min, 1 h, 2 h, 4 h, 6 h, 24 h and 48 h) and flash frozen with acetone/solid CO 2. Samples were treated with 200 µL of MeOH to precipitate serum proteins. Samples for U HPLC analysis were centrifuged and filtered through a 0.22 µm filter before injection. Aliquots were analysed with UHPLC-UV (flow = 0.61 mL/min; gradient 5 -95% MeCN (0.036% TFA) in water (0.045% TFA) in 2 minutes). The amount of peptide remaining was calculated by comparing the area under the curve of the several samples. […]

[3] = system: human brain endothelial cells monolayer (BBB model); experiment: Permeability assay in the in vitro BBB cellular model (human brain-like endothelial cells on Transwell); format: in vitro ADME; conditions: human cell-based BBB model
Experimental: 48-hour post-transfection, 50 μl of the sulfo-Cy5-labelled peptides were added to each well at the appropriate concentration (from 5 to 600 nM) and incubated at 4°C for 1 hour. Cells were washed three times with 100 μL of PBS, trypsinized with 25 μl of trypsin for 5 min at 37°C and, then 75 μL of supplemented medium with formalin (33% v/v) was added. Cells were detached by repeated pipetting and analysed using an Agilent NovoCyteflow cytometer (Agilent). sCy5 was analysed at 640 nm while mNeon-Green at 488 nm. Data was analysed by plotting the geometric mean vs the concentration of the peptide.
Permeability assays in the in vitro BBB cellular model […]
the compound in Ringer HEPES was added to the donor compartment and 1500 µL of Ringer HEPES was introduced into the acceptor compartment. The plates were incubated for 2 h at 37 °C, and the solutions from both compartments were recovered and analysed. The samples were evaluated in triplicates. The amount of protein conjugates was quantified by fluorescence with Fluorescence Spectrophotometer F2500 HITACHI. […] The voltage for the detector was 700 V. Apparent permeability was calculated with the following formula: […]

[4] = biological target: T1, human Transferrin Receptor (Homo sapiens, UniProt P02786); experiment: Biolayer interferometry with immobilized extracellular domain of the receptor; conditions: biotinylated hTfR on streptavidin biosensors, Octet R2, 25 °C, 10 mM HEPES pH 7.4, 150 mM NaCl, 0.05 % Tween-20, 1 mg/mL BSA; peptide 11.1, 33.3, 100 µM; 1:1 binding model; read-out: KD, binding to immobilized human TfR
T1 construct: purchased Acro Biosystems TFR-H82E5
T1 sequence (P02786 89-760 limits assumed): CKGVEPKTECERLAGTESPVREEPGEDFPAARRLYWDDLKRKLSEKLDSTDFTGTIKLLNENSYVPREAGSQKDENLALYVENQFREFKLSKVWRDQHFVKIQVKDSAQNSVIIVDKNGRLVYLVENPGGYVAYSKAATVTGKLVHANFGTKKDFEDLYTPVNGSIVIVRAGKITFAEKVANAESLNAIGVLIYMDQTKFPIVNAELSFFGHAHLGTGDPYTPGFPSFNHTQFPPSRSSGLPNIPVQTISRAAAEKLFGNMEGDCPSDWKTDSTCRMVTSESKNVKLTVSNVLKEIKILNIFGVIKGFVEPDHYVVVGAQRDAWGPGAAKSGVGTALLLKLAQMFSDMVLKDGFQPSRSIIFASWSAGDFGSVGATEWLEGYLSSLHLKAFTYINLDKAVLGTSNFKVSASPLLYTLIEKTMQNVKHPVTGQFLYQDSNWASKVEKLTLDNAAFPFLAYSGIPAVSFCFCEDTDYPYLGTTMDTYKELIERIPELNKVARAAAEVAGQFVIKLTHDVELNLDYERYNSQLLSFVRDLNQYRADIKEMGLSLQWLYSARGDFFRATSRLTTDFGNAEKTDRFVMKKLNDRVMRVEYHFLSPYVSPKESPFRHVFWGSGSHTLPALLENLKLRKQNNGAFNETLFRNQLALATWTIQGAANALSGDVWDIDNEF
Experimental: Biophysical characterization
Binding assays were performed on an Octet R2 (Sartorious) using streptavidin-coated biosensors (SA biosensors, 18-5019). Biosensors were equilibrated for at least 10 min in binding buffer (10 mM HEPES pH 7.4, 150 mM NaCl, 0.05 % Tween-20, 1 mg/mL BSA).
Experiments were designed and executed from the Octet BLI Discovery 13.0 software. The biotinylated human Transferrin Receptor (TFR-H82E5, Acro Biosystems) was immobilized onto the biosensor by dipping the sensors into a solution of 1 µg/mL hTfR for 500 s, followed by dipping the sensor into a fresh solution of binding buffer to stablish a baseline for 200 s.
Titrations were executed at 25 °C while rotating at 1000 rpm. In the association phase, the sensors were dipped into a solution containing the peptides at several concentrations in binding buffer for 150 s. After reaching equilibrium, the biosensors were dipped into fresh binding solution to monitor the dissociation kinetics for 200 s. Kinetic data were collected and processed using a 1:1 binding model to obtain the affinity constants using the Octet Analysis […]
Unpaired two-tailed student t tests were applied to evaluate the significant difference or p values between data sets using Prism 6.0c software.
1. C. Heinis, T. Rutherford, S. Freund and G. Winter, Nat Chem Biol, 2009, 5, 502–507.
2. […]

| App. Kd, association to HeLa cells (TfR1+) [1] | half-life at 100 µM [2] [h] | App. Kd, association to HeLa cells (TfR1+) ([1]; listed as BB4) [nM] | Fold increase in the transport of GFP on conjugation to the shuttle ([3]; GFP conjugate vs GFP) [fold] | Fold increase in the transport of the scFv on conjugation to the shuttle ([3]; sCy5-labelled scFv conjugate vs scFv) [fold] | Kd [4] [nM] | Molecule |
| --- | --- | --- | --- | --- | --- | --- |
| > 400 nM | 7.7 ± 1.9 |  |  |  |  | CC(C)[C@@H]1NC(=O)[C@@H](N)CSCc2cc3cc(c2)CSC[C@H](NC(=O)[C@H](CC(=O)O)NC(=O)[C@H](Cc2c[nH]c4ccccc24)NC(=O)[C@H](Cc2c[nH]cn2)NC1=O)C(=O)N[C@@H](CCCNC(=N)N)C(=O)N[C@@H](CCC(N)=O)C(=O)N[C@@H](Cc1c[nH]c2ccccc12)C(=O)N[C@@H](Cc1c[nH]c2ccccc12)C(=O)N[C@@H](CCC(N)=O)C(=O)N1CCC[C@H]1C(=O)N[C@@H](CO)C(=O)N[C@H](C(N)=O)CSC3 [BrainBike-1] (H-CVHWDCRQWWQPSC-NH2; linker 1-6-14 via TBMB) |
| 120 ± 15 nM | 3.5 ± 0.3 |  |  |  |  | CC(C)[C@@H]1NC(=O)[C@@H](N)CSCc2cc3cc(c2)CSC[C@H](NC(=O)[C@H](Cc2c[nH]c4ccccc24)NC(=O)[C@H](CCC(N)=O)NC(=O)[C@H](CCCNC(=N)N)NC(=O)[C@H](Cc2ccccc2)NC(=O)[C@H](CC(=O)O)NC(=O)[C@H](Cc2c[nH]c4ccccc24)NC(=O)[C@H](Cc2c[nH]cn2)NC1=O)C(=O)N[C@@H](CCC(N)=O)C(=O)N1CCC[C@H]1C(=O)N[C@@H](CO)C(=O)N[C@H](C(N)=O)CSC3 [BrainBike-2] (H-CVHWDFRQWCQPSC-NH2; linker 1-10-14 via TBMB) |
| 250 ± 5 nM | 4.8 ± 0.6 |  |  |  |  | CC(C)[C@@H]1NC(=O)[C@@H](N)CSCc2cc3cc(c2)CSC[C@H](NC(=O)[C@H](CCCNC(=N)N)NC(=O)[C@H](Cc2ccccc2)NC(=O)[C@H](CC(=O)O)NC(=O)[C@H](Cc2c[nH]c4ccccc24)NC(=O)[C@H](Cc2c[nH]cn2)NC1=O)C(=O)N[C@@H](CCC(N)=O)C(=O)N[C@@H](Cc1c[nH]c2ccccc12)C(=O)N[C@@H](Cc1c[nH]c2ccccc12)C(=O)N[C@@H](CCC(N)=O)C(=O)N1CCC[C@H]1C(=O)N[C@@H](CO)C(=O)N[C@H](C(N)=O)CSC3 [BrainBike-3] (H-CVHWDFRCQWWQPSC-NH2; linker 1-8-15 via TBMB) |
| roughly 40 nM | 5.5 ± 2.5 | 37 ± 2 | 4 | 5 |  | CC(C)[C@@H]1NC(=O)[C@@H](N)CSCc2cc3cc(c2)CSC[C@H](NC(=O)[C@H](CC(=O)O)NC(=O)[C@H](Cc2c[nH]c4ccccc24)NC(=O)[C@H](Cc2c[nH]cn2)NC1=O)C(=O)N[C@@H](CCCNC(=N)N)C(=O)N[C@@H](CCC(N)=O)C(=O)N[C@@H](Cc1c[nH]c2ccccc12)C(=O)N[C@H](C(N)=O)CSC3 [BrainBike-4] (H-CVHWDCRQWC-NH2; linker 1-6-10 via TBMB) |
| 270 ± 5 nM | 1.8 ± 0.5 |  |  |  | > 100000 | H-GVHWDFRQWWQPS-NH2 [Y1, reference compound] |
